This assay addresses Xanthine dehydrogenase/oxidase (Bos taurus, UniProt P80457). The assay is described as follows: Inhibition Assay: Test compounds were dissolved in DMSO (Wako) at 40 mM concentration and then diluted to intended concentrations with phosphate-buffered saline (PBS). Xanthine oxidase (from bovine milk, Sigma) was prepared with phosphate-buffered saline (PBS) at 0.02 units/mL, and then the solution was added to 96 well plates at 50 μL/well. In addition, test compounds diluted with PBS were added at 50 μL/well. Xanthine (Wako) at 200 μM prepared with PBS was added at 100 μL/well, and the reaction was conducted for 10 minutes at room temperature. Absorbance at 290 nm was measured using a microplate reader SpectraMax Plus 384 (Molecular device). The absorbance under a condition without xanthine is 0%, and control without test compounds is 100%.

Sequence of Xanthine dehydrogenase/oxidase (P80457 whole entry): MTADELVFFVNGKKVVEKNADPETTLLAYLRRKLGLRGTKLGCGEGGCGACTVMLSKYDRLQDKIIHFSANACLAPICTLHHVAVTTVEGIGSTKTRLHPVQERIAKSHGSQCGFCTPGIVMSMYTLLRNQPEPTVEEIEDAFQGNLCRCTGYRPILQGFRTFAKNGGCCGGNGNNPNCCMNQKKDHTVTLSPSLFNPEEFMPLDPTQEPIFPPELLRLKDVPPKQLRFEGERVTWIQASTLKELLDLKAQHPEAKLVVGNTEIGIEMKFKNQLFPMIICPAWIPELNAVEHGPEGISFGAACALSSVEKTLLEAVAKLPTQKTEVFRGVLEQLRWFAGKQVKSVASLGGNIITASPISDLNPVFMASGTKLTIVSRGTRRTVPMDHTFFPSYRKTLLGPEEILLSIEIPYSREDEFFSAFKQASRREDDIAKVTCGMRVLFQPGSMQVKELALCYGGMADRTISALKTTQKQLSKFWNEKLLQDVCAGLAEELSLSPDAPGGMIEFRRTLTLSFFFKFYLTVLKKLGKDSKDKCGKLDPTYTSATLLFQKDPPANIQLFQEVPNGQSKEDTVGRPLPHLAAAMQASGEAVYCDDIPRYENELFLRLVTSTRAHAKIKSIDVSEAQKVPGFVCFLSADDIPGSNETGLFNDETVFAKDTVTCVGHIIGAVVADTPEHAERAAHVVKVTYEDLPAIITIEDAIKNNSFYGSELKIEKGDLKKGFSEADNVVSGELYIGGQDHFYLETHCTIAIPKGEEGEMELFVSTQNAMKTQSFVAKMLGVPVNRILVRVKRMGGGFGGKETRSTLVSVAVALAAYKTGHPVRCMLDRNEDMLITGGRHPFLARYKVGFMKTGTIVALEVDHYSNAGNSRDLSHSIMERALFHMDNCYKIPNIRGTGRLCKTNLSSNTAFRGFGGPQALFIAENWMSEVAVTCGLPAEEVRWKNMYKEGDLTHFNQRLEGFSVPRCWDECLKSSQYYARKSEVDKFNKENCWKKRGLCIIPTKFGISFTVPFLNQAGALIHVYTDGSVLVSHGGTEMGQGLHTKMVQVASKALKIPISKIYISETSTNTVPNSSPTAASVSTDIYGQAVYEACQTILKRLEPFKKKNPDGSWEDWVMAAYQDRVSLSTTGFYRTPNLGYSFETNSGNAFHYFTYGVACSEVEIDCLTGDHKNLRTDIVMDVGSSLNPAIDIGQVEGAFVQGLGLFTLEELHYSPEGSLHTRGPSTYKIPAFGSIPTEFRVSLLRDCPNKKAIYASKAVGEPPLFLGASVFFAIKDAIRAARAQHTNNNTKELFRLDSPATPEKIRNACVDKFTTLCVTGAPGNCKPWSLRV

The IC50 is the concentration that gives 50% inhibition. `N#Cc1cn(-c2ccc(C(=O)O)cn2)c2ccccc12`: the IC50 was 72.9 nM.

These data come from ChEMBL document CHEMBL3638768, “(aza)indole derivative and use thereof for medical purposes” (2015).
